For assay [1], the target named is T1, Transient receptor potential cation channel subfamily A member 1 (Rattus norvegicus, UniProt Q6RI86). Description: Agonist activity at rat recombinant TRPA1 expressed in HEK293 cells assessed as increase in intracellular calcium accumulation by Fluo4-AM based assay. It is filed as cell-based. In general terms: Calcium flux is commonly read through the fluorescence of an indicator in the cells.

Assay [2] addresses T2, Transient receptor potential cation channel subfamily A member 1 (Homo sapiens, UniProt O75762). Description: Antagonist activity at human recombinant TRPA1 transfected in HEK293T cells assessed as increase in Ca2+ influx by FLIPR calcium assay. Type of assay: cell-based.
For assay [3], the target named is T3, Transient receptor potential cation channel subfamily V member 1 (Homo sapiens, UniProt Q8NER1). Description: Inhibition of TRPV1 (unknown origin).
For assay [4], the target named is T2, Transient receptor potential cation channel subfamily A member 1. Kind of assay: Antagonist activity at TRPA1 (unknown origin) expressed in HEK293T cells assessed as inhibition of agonist induced channel current by whole-cell patch clamp analysis. Type of assay: cell-based. For orientation: The patch-clamp technique gives a direct electrical read-out from membranes.

The target is the same in assay [5]. Description: Agonist activity at TRPA1 (unknown origin).
The target of assay [6] is T4, Transient receptor potential cation channel subfamily A member 1 (Mus musculus, UniProt Q8BLA8). Description: Agonist activity at full length mouse TRPA1 transfected in HEK293F cells assessed as increase in Ca2+ influx by FLIPR calcium assay. Type of assay: cell-based.
The target of assay [7] is T2, Transient receptor potential cation channel subfamily A member 1. Description: Inhibition of TRPA1 (unknown origin).
Assay [8] concerns the target T1, Transient receptor potential cation channel subfamily A member 1. Description: Agonist activity at rat TRPA1 transfected in HEK293F cells assessed as increase in Ca2+ influx by FLIPR calcium assay. It is filed as cell-based.
The target of assay [9] is T3, Transient receptor potential cation channel subfamily V member 1. Description: Agonist activity at human recombinant TRPV1 over expressed in HEK293 cells assessed as increase in intracellular calcium level by measuring efficacy by Fluo4-AM based assay. Type of assay: cell-based.
The target in assay [10] is T4, Transient receptor potential cation channel subfamily A member 1. Description: Antagonist activity at mouse TRPA1 expressed in HEK293F cells as increase in Ca2+ influx by FLIPR calcium assay. Type of assay: cell-based.

SMILES strings stand for the structures.

T4 sequence (Q8BLA8 whole entry): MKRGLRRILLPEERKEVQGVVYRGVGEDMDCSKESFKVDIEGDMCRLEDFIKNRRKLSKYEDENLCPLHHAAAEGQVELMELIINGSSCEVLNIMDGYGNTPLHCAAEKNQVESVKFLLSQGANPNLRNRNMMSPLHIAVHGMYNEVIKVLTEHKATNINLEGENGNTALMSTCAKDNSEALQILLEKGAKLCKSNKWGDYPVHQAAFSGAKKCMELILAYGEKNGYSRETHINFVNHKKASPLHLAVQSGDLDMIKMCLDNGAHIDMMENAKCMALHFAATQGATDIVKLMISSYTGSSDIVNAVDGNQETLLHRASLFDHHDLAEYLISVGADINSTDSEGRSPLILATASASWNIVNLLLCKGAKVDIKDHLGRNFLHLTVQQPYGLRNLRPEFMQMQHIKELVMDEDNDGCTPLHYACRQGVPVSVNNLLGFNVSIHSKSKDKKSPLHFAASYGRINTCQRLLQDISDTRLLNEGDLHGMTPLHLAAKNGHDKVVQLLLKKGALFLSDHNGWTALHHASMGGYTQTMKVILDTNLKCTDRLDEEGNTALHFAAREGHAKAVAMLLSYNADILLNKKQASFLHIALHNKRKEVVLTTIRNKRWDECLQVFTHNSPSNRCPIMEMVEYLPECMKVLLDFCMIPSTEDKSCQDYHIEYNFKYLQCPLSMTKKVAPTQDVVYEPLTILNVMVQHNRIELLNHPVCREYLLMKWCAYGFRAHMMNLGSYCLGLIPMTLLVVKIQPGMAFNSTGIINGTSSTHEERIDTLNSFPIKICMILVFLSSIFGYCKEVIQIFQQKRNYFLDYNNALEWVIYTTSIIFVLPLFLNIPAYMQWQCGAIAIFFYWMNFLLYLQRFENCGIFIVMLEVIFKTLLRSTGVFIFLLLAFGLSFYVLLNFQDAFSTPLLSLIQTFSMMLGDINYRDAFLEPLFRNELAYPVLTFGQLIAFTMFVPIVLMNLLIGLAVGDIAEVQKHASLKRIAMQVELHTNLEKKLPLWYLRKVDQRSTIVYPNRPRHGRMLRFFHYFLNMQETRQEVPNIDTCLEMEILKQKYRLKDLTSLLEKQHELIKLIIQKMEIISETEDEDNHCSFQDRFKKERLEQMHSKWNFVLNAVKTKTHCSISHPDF
T3 sequence (Q8NER1 whole entry): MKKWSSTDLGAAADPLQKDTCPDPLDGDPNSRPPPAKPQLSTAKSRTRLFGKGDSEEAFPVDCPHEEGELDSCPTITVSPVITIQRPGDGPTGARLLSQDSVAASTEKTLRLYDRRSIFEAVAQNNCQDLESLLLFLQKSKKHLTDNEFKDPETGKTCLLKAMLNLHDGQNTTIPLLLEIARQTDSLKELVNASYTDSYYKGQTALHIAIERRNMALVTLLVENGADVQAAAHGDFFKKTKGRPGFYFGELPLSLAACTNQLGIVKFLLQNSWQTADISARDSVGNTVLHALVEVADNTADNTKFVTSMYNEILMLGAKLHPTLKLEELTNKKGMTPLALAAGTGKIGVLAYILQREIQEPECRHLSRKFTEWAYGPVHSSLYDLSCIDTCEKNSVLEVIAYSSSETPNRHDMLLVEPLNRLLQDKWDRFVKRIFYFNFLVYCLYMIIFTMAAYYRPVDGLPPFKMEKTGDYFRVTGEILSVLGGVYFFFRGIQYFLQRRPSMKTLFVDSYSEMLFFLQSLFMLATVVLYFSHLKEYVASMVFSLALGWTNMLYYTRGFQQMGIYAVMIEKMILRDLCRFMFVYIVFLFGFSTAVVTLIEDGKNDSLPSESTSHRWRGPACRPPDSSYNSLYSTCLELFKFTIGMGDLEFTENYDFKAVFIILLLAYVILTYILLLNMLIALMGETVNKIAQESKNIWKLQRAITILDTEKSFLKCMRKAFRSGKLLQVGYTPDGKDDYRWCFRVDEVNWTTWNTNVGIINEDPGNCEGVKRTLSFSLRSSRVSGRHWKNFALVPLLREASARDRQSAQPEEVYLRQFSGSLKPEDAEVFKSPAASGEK
T2 sequence (O75762 whole entry): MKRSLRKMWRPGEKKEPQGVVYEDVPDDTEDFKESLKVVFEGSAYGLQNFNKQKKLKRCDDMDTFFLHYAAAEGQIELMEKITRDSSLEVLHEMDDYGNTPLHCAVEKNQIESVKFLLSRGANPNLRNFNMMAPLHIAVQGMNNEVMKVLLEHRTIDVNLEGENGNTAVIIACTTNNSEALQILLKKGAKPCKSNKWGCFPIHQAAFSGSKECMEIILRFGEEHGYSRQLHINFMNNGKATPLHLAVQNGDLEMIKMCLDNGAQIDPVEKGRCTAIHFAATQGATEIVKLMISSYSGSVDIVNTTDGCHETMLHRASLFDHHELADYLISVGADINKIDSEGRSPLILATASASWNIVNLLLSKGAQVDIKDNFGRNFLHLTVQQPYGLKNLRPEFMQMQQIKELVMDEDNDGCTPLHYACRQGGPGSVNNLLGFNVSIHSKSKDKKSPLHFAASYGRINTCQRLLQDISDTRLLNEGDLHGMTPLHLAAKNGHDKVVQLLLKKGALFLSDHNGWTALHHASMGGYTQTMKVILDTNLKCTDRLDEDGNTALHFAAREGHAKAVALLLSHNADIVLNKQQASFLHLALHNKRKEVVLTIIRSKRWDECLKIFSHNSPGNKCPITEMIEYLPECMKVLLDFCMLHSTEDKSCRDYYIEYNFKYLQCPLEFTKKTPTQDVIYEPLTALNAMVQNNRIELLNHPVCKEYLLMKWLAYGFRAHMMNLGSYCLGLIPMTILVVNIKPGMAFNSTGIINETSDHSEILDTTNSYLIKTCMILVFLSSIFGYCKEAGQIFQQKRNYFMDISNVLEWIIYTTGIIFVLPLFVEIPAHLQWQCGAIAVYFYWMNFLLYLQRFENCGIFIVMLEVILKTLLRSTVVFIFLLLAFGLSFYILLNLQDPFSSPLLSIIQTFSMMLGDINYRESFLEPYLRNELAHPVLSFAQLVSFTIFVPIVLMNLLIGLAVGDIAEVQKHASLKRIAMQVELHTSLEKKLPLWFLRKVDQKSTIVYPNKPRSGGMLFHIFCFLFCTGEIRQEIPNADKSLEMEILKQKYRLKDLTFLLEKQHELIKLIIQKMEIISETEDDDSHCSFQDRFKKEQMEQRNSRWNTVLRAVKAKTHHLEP
T1 sequence (Q6RI86 whole entry): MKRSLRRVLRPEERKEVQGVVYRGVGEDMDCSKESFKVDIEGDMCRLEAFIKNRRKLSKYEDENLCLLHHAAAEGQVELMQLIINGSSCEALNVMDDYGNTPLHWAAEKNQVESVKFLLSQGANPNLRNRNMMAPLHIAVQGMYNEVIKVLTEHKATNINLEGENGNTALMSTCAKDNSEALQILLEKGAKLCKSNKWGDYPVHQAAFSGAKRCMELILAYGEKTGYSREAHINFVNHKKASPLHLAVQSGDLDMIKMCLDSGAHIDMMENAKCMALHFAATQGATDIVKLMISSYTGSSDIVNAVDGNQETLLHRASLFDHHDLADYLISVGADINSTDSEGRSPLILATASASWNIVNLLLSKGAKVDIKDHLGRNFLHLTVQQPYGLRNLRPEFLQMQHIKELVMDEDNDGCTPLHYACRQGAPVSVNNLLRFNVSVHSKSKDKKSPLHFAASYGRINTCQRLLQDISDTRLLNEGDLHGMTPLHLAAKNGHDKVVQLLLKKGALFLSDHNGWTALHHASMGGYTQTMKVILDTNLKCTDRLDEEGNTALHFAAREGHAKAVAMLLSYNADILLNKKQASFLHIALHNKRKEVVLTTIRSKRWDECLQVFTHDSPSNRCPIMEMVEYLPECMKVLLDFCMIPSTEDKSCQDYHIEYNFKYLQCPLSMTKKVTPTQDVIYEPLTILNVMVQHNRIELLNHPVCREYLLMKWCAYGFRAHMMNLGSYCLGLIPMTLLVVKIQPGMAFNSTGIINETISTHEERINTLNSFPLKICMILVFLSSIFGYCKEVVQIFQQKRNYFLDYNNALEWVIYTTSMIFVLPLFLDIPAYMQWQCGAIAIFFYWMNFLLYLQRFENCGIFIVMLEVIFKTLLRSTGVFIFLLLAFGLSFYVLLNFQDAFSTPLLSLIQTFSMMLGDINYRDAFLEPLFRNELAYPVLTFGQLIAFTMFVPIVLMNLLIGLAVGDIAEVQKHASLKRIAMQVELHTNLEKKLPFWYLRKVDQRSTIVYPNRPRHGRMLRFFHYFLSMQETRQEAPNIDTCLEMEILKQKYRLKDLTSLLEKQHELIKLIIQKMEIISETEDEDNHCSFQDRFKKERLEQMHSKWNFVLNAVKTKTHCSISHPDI

With `CC(C)CN1C(=O)/C(=C/C(=O)O)c2cccc(F)c21`, in [1], the IC50 – broadly, the concentration needed to halve the response being measured – came out at 0.51 µM.
Regarding `O=NN1[C@@H]2c3ccccc3[C@H]1[C@@H](C(F)(F)F)C2C(F)(F)F` (stereo partly specified), in [2], the half-maximal effective concentration (EC50) (in general, the concentration at which the effect is half-maximal) was found to be 5.63 µM.
For `CC(C)c1cc(CCC(=O)CC(O)Cc2ccccc2)cc(C(C)C)c1O` (stereo unspecified), in [3], the IC50 was more than 50 µM.
For the compound `O=C(CCc1ccc2c(c1)OCO2)CC(O)CCCCCCc1ccccc1` (stereo unspecified), the IC50 in assay [3] was more than 10 µM.
On the same count and under the same terms, the same measure for `O=C(CCc1ccccc1)CC(O)CCCCCCc1ccccc1` (stereo unspecified): more than 10 µM.
Turning to `C[n+]1cc2c3c(ccc2c2ccc4cc5c(cc4c21)OCO5)OCO3`, the EC50 in assay [4] was found to be 0.09 µM.
For the compound `COCCCN(C(=O)CCl)c1nc(-c2ccc(OC)cc2)cs1`, in assay [5], the EC50 is 0.00065 µM.
As for `O=C(O)CCCCCCCCCO`, the EC50 in [6] is 510 µM.
For `O=C(CCc1ccccc1)CC(O)Cc1ccccc1` (stereo unspecified), the IC50 in assay [7] was 4.5 µM; in assay [3], more than 50 µM.
As for `Cn1cnc2ncn(Cc3nc([C@@H]4CO[C@@H](c5ccc(F)cc5)C4)no3)c(=O)c21`, in [8], the half-inhibitory concentration (IC50) turned out to be 0.007 µM.
In the case of `O=C(O)/C=C/CCCCCCCO`, in assay [6], the EC50 worked out at 422 µM.
Take `C[C@@H](N)[C@@H](O)C/C=C\C/C=C\C/C=C\C/C=C\C/C=C\C/C=C\CCCCCC[C@H](O)[C@@H](C)N` [LEUCETTAMOL A]: the half-maximal effective concentration (EC50) in [9] came to 3.7 µM.
`CCC/C=C1\OC(=O)C2=C1CCC=C2` [LIGUSTILIDE]: the EC50 in assay [10] was 44 µM.
`O=C1C[C@@H](c2ccc(O[C@@H]3O[C@H](CO)[C@@H](O)[C@H](O)[C@H]3O)cc2)Oc2cc(O)ccc21` [LIQUIRITIN] yielded an IC50 in assay [7] of 16.2 µM.
In the case of `CCC/C=C1\OC(=O)c2ccccc21` [Z-butylidenephthalide], the EC50 in [6] came out at 539 µM.
